Measured values: publication PMC11997999, “Uncovering α-Selectivity for Liver X Receptor Agonists for Lipotoxic Cancer Therapies” (Journal of Medicinal Chemistry, 2025)

How the values were obtained:
[1] = test system: Akt1^Myr; Myc^OE HCC organoids; assay: Cell viability analysis in HCC organoids (CellTiter-Glo 3D); assay type: cell-based, murine; details: 5d, with 4 μM sorafenib
Text: Finally, we analyzed the efficacy of compound 40 in preclinical treatment studies in three-dimensional liver cancer organoid cultures. HCC organoids driven by myristoylated Akt1 and overexpressed Myc (Akt1^Myr; Myc^OE) were isolated from murine liver tumors and subjected to monotherapies of sorafenib, compound 40, or a combination thereof (Figure 7C). The therapeutic outcome was side-by-side compared with combinatorial therapies comprising the established agonists T0901317 (1) and GW3965 (2). […] Isolation of murine HCC organoid cultures was performed from liver tumors derived from C57BL/6 mice using established protocols.[26] The animal experiments were approved by committees of the regional authority of the state of Baden-Wuerttemberg (Regierungspraesidium Tuebingen, authorization number M15/18G) as appropriate. After digestion, the organoids were embedded in 100% Growth Factor Reduced (GFR) MatrigelTM (Corning) and cultured at 37 °C and 5% CO2 in HCC organoid medium supplemented with nicotinamide (10 mM), N-acetylcystein (1.25 mM), human HGF (50 ng/mL), human FGF-10 (100 ng/mL), human R-Spondin (0.5 μg/mL), forskolin (10 μM), A83- 01 (0.5 μM), murine Noggin (50 ng/mL), gastrin I (10 nM), human BMP-7 (25 ng/mL), human Wnt3a (100 ng/mL), B27 supplement (1×) and N2 supplement (1×). The cultures were split by mechanical dissociation every 3 to 4 days. […] Cell viability was determined after 5 days of treatment using the CellTiter-Glo 3D Cell Viability Assay Kit (Promega). Cell viability of Hep3B, AML12, and BNL CL.2 cells was determined after 5 days of treatment in white 96 well plates (Sarstedt) using the CellTiter-Glo 2.0 Cell Viability Assay Kit (Promega). […] The luminescence signal was measured using an […] M PLEX plate reader (Tecan) and the Tecan i-control software (v3.9.1). […]

[2] = target: T1, LXRβ (Homo sapiens, UniProt P55055); assay: LXRβ-specific LXRE-GFP reporter assay in Hep3B cells (NR1H3 knockout); assay type: cell-based; details: 48h of treatment, GFP by FACS
T1 construct: To measure the activity of the remaining isoform under treatment; endogenous in cells; host or cells: Hep3B (NR1H3 knockout, LXRE-GFP reporter)
T1 sequence (P55055 1-460): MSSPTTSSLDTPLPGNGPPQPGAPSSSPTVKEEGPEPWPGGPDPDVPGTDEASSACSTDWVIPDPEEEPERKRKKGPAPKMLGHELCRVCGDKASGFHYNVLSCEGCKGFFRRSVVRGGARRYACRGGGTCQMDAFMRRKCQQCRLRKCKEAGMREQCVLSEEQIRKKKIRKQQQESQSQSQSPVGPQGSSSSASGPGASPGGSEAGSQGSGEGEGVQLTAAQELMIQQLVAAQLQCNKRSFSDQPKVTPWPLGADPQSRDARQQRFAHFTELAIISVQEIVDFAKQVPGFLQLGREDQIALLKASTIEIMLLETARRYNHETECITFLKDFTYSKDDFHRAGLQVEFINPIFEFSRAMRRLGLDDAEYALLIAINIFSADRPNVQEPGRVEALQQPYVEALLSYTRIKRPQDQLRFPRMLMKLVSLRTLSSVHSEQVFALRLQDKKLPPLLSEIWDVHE

[3] = test system: AML12 cells; assay: Cell viability analysis in untransformed liver cells AML12 (CellTiter-Glo); assay type: cell-based; details: AML12, 5d, with 2 μM sorafenib
Protocol: To further determine the therapeutic potential of compound 40, we analyzed the effect of a combinatorial lipotoxic therapy with this agonist in untransformed liver cells. We applied the well-established untransformed liver cell lines AML12 and BNL CL.2 and subjected them to treatment with 40 in combination with sorafenib.
For organoid treatment studies, digestion of organoids was performed using TrypLE Express (Gibco) supplemented with 100 μg/mL DNaseI and 10.5 μM Y-27632 dihydrochloride (Invitrogen) at 37 °C, and afterward, single-cells were plated in white 96 well plates (Sarstedt) in a mixture of 10% Matrigel (Growth Factor Reduced (GFR) Matrigel, Corning) in culture medium. Cell viability was determined after 5 days of treatment using the CellTiter-Glo 3D Cell Viability Assay Kit (Promega). Cell viability of Hep3B, AML12, and BNL CL.2 cells was determined after 5 days of treatment in white 96 well plates (Sarstedt) using the CellTiter-Glo 2.0 Cell Viability Assay Kit (Promega). AML12 and BNL CL.2 cells were also obtained from the American Type Culture Collection. The luminescence signal was measured using an […] M PLEX plate reader (Tecan) and the Tecan i-control software (v3.9.1). Sodium oleate (Selleckchem) was dissolved in methanol and added to cells at a final concentration of 200 μM.

[4] = test system: VDR, PPARα, PPARγ, ERα, ERβ, FXR, AhR, mCAR; assay: Nuclear receptor panel screening, luciferase reporter assays in HepG2 cells; assay type: cell-based; details: HepG2, 10 μM, 24 h
Protocol: To examine the specificity of compound 40 (and as a control compound 46) toward other nuclear receptors, we assessed their activity in activating eight critical nuclear receptors with cellular reporter assays at saturating concentrations (10 μM). We chose nuclear receptors that are either known to directly or indirectly regulate metabolic processes in the liver, including vitamin D receptor (VDR), peroxisome proliferator-activated receptors α and γ (PPAR α and γ), estrogen receptor α and β (ERα and β) and farnesoid X receptor (FXR) or are relevant in drug metabolism such as aryl hydrocarbon receptor (AhR) and the mice constitutive androstane receptor (mCAR).
For nuclear receptor panel screening, the HepG2 cell line (obtained by American Type Culture Collection) was maintained in DMEM (Gibco) supplemented with 10% FBS+ 1% nonessential amino acids medium and incubated at 37 °C. Plasmids for mouse constitutive androstane receptor (mCAR) and its luciferase gene reporter construct p2B6-luc have been described in Mejdrová et al.[24] Other luciferase reporter constructs have been described in Stefela et al.[25] The transient transfection experiments were performed on 48-well format plates 24 h after cell seeding (1.1 × 10^5 per well). The Lipofectamine 3000 transfection reagent was used according to the manufacturer’s instructions. […]

EC50 [2]: 631 nM
SMILES: O=C1C(Nc2ccc(N3CCCCC3)cc2)=C(c2ccccc2)C(=O)N1Cc1ccccc1 [Compound 40, 1-Benzyl-3-phenyl-4-((4-(piperidin-1-yl)phenyl)amino)-1H-pyrrole-2,5-dione]
therapeutic efficacy (cell viability) in combination with sorafenib [1]: further improved therapeutic efficacy
sensitivity of untransformed liver cells to combination therapy (cell viability) [3]: only very low sensitivity
activation of eight other nuclear receptors [4]: no relevant activation
